Where “and” joins values, the source holds several entries; their conditions need not be identical. Equal values may be shown once.
How the values were obtained:
Assay type in all cases: in vivo
[1] = system: ABUTH; experiment: Postemergence herbicidal evaluation
[2] = system: ZEAMX; experiment: Postemergence herbicidal evaluation
[3] = system: ECHCG; experiment: Preemergence herbicidal evaluation; set-up: scale not given here
[4] = system: SETVI; experiment: Preemergence herbicidal evaluation; set-up: scale not given here
[5] = system: AMBEL; experiment: Preemergence herbicidal evaluation; set-up: scale not given here
[6] = system: ZEAMX; experiment: Preemergence herbicidal evaluation; set-up: scale not given here
[7] = system: ABUTH; experiment: Preemergence herbicidal evaluation; set-up: scale not given here
[8] = system: GALAP; experiment: Preemergence herbicidal evaluation; set-up: scale not given here
[9] = system: IPOSS; experiment: Preemergence herbicidal evaluation; set-up: scale not given here
[10] = system: TRZAWR; experiment: Preemergence herbicidal evaluation; set-up: scale not given here
[11] = system: GLXMAW; experiment: Preemergence herbicidal evaluation; set-up: scale not given here
[12] = system: CHEAL; experiment: Preemergence herbicidal evaluation; set-up: scale not given here
[13] = system: CASOB; experiment: Preemergence herbicidal evaluation; set-up: scale not given here

For `O=C1C2=C(CCCC2)C(=O)N1c1ccc2snc(-c3ccccc3)c2c1` [A], the herbicidal effect rating ([1]; 0.0625-0.0640 kg/ha) was 8.6, the herbicidal effect rating ([1]; 0.1250 kg/ha) was 9.0 and the herbicidal effect rating ([1]; 0.2500 kg/ha) was 9.0. For the same compound, the herbicidal effect rating ([1]; 0.5000 kg/ha) was 9.0, the herbicidal effect rating ([2]; 0.0313-0.0320 kg/ha) was 4.0 and 3.4 and the herbicidal effect rating ([2]; 0.0625-0.0640 kg/ha) was 3.7. It also gave a herbicidal effect rating ([2]; 0.1250 kg/ha) of 4.2, a herbicidal effect rating ([2]; 0.2500 kg/ha) of 3.8 and a herbicidal effect rating ([2]; 0.5000 kg/ha) of 4.0. The herbicidal effect rating ([3]; 0.0156-0.0160 kg/ha) was 0.0, the herbicidal effect rating ([3]; 0.0313-0.0320 kg/ha) was 0.0 and the herbicidal effect rating ([3]; 0.0620-0.0630 kg/ha) was 0.0. It also gave a herbicidal effect rating ([3]; 0.1250 kg/ha) of 0.0, a herbicidal effect rating ([3]; 0.2500 kg/ha) of 0.0 and a herbicidal effect rating ([3]; 0.5000 kg/ha) of 0.0. For the same compound, the herbicidal effect rating ([4]; 0.0156-0.0160 kg/ha) was 0.0, the herbicidal effect rating ([4]; 0.0313-0.0320 kg/ha) was 0.0 and the herbicidal effect rating ([4]; 0.0620-0.0630 kg/ha) was 0.0. It also gave a herbicidal effect rating ([4]; 0.1250 kg/ha) of 2.5, a herbicidal effect rating ([4]; 0.2500 kg/ha) of 2.0 and a herbicidal effect rating ([4]; 0.5000 kg/ha) of 3.0. The herbicidal effect rating ([5]; 0.0156-0.0160 kg/ha) was 0.0, the herbicidal effect rating ([5]; 0.0620-0.0630 kg/ha) was 2.0 and the herbicidal effect rating ([5]; 0.1250 kg/ha) was 3.5. It also gave a herbicidal effect rating ([5]; 0.2500 kg/ha) of 6.0, a herbicidal effect rating ([5]; 0.5000 kg/ha) of 5.0 and a herbicidal effect rating ([6]; 0.0156-0.0160 kg/ha) of 0.0. For the same compound, the herbicidal effect rating ([6]; 0.0313-0.0320 kg/ha) was 0.0, the herbicidal effect rating ([6]; 0.0620-0.0630 kg/ha) was 0.0 and the herbicidal effect rating ([6]; 0.1250 kg/ha) was 0.0. For the same compound, the herbicidal effect rating ([6]; 0.2500 kg/ha) was 0.0, the herbicidal effect rating ([6]; 0.5000 kg/ha) was 0.0 and the herbicidal effect rating ([7]; 0.0156-0.0160 kg/ha) was 0.0. For the same compound, the herbicidal effect rating ([7]; 0.0313-0.0320 kg/ha) was 0.0, the herbicidal effect rating ([7]; 0.0620-0.0630 kg/ha) was 0.0 and the herbicidal effect rating ([7]; 0.1250 kg/ha) was 5.0. For the same compound, the herbicidal effect rating ([7]; 0.2500 kg/ha) was 6.0, the herbicidal effect rating ([7]; 0.5000 kg/ha) was 7.0 and the herbicidal effect rating ([8]; 0.0313-0.0320 kg/ha) was 5.5. The herbicidal effect rating ([8]; 0.0620-0.0630 kg/ha) was 4.5, the herbicidal effect rating ([8]; 0.1250 kg/ha) was 7.0 and the herbicidal effect rating ([8]; 0.2500 kg/ha) was 9.0. For the same compound, the herbicidal effect rating ([8]; 0.5000 kg/ha) was 9.0, the herbicidal effect rating ([9]; 0.0156-0.0160 kg/ha) was 0.0 and the herbicidal effect rating ([9]; 0.0313-0.0320 kg/ha) was 0.0. The herbicidal effect rating ([9]; 0.0620-0.0630 kg/ha) was 0.0, the herbicidal effect rating ([9]; 0.1250 kg/ha) was 0.0 and the herbicidal effect rating ([9]; 0.2500 kg/ha) was 0.0. It also gave a herbicidal effect rating ([9]; 0.5000 kg/ha) of 2.0, a herbicidal effect rating ([10]; 0.0156-0.0160 kg/ha) of 0.0 and a herbicidal effect rating ([10]; 0.0313-0.0320 kg/ha) of 0.0. It also gave a herbicidal effect rating ([10]; 0.0620-0.0630 kg/ha) of 0.0, a herbicidal effect rating ([10]; 0.1250 kg/ha) of 0.0 and a herbicidal effect rating ([11]; 0.0313-0.0320 kg/ha) of 0.0. It also gave a herbicidal effect rating ([11]; 0.0620-0.0630 kg/ha) of 0.0, a herbicidal effect rating ([11]; 0.1250 kg/ha) of 0.0 and a herbicidal effect rating ([11]; 0.2500 kg/ha) of 0.0. For the same compound, the herbicidal effect rating ([11]; 0.5000 kg/ha) was 0.0, the herbicidal effect rating ([12]; 0.0156-0.0160 kg/ha) was 2.0 and the herbicidal effect rating ([12]; 0.0620-0.0630 kg/ha) was 2.5. For the same compound, the herbicidal effect rating ([12]; 0.1250 kg/ha) was 5.0, the herbicidal effect rating ([12]; 0.2500 kg/ha) was 7.0 and the herbicidal effect rating ([12]; 0.5000 kg/ha) was 9.0. It also gave a herbicidal effect rating ([13]; 0.0156-0.0160 kg/ha) of 0.0, a herbicidal effect rating ([13]; 0.0313-0.0320 kg/ha) of 0.0 and a herbicidal effect rating ([13]; 0.0620-0.0630 kg/ha) of 0.0. The herbicidal effect rating ([13]; 0.1250 kg/ha) was 1.5, the herbicidal effect rating ([13]; 0.2500 kg/ha) was 2.0 and the herbicidal effect rating ([13]; 0.5000 kg/ha) was 2.0.

From patent publication US6156700A, “3-(1,2-Benzisothiazol- and isoxazol-5-yl)-2,4(1H,3H)-pyrimidinedione or thione and 3-(1,2-benzisothiazol- and isoxazol-5-yl)-4(3H)-pyrimidinone or thione herbicidal agents” (American Cyanmid Company, priority 1998, dated 2000)
